“Also recorded” adds a separate entry of the source. Read-outs that look alike come from different tables or passages of the source.
Assays:
[1] = tested on: nonalcoholic steatohepatitis; conditions: cited from earlier work
FXR = assay: FGF19 biomarker in single and multiple dose studies of TRX; assay type: in vivo, human; conditions: single doses 10-3000 μg or multiple daily doses 10-100 μg; 69 subjects
Procedure: (§1) A total of 69 subjects have received TRX at doses ranging from 10 μg to 3000 μg in single or 10 μg to 100 μg in multiple daily doses.

[2] = Safety in single dose studies of TRX; assay type: in vivo, human; conditions: single dose studies up to 3000 μg
Procedure: as §1

[3] = Drug-drug interaction study between TRX and CVC in healthy and healthy but overweight to obese subjects (plasma pharmacokinetics, tolerability); assay type: in vivo, human; conditions: for AUC(0-t) / Cmax: human, plasma, oral, TRX 60 μg
From the text: This is a single site, randomized, parallel group, 3 arm double-blind, double-dummy study to evaluate the potential drug-drug interaction between TRX and CVC in healthy and healthy but overweight to obese subjects. Healthy and healthy but overweight to obese subjects with body mass index (BMI) up to 32, are included to give a better representation of the NASH patients that will be studied in future clinical studies. The subjects were randomized into 3 arms a) TRX monotherapy, b) CVC monotherapy, and c) TRX and CVC as a combination.
A total of 42 subjects were randomized into the 3 parallel arms receiving single daily doses of TRX, CVC, and TRX+CVC combination.
This study examined doses of 60 μg of tropifexor and 150 mg of CVC given with a standard breakfast.
Pharmacokinetics: Sample collections included time points up to 24 hours after the first (Day 1) and the last (Day 14) doses to establish the AUC0-24 h,Cmax AUC0-24 h,ss and Cmax,ss for TRX, CVC, and TRX+CVC plasma concentration-time profiles.

[4] = 1-month combination toxicity study with CVC and TRX; assay type: in vivo; conditions: CVC 30 mg/kg/day alone
Procedure: A 1-month combination toxicity study was performed with cenicriviroc (CVC) (30 mg/kg/day) and tropifexor (TRX) (0.03 mg/kg or 1 mg/kg/day).

[5] = Phase I studies of CVC, tolerability; assay type: in vivo, human; conditions: single doses up to 900 mg; multiple daily doses up to 400 mg for 10 days
NASH with liver fibrosis = conditions: cited from earlier work
[6] = Day 14, TRX 60 μg + CVC 150 mg daily
[7] = Day 1, dosed alone, CVC 150 mg, with standard breakfast, read-out: area under the concentration-time curve (AUC0-24 h)
[8] = Day 1, dosed alone, CVC 150 mg, with standard breakfast, read-out: observed peak drug concentration (Cmax)
[9] = Day 14, dosed alone, CVC 150 mg daily, read-out: steady-state AUC0-24 h,ss
[10] = Day 14, dosed alone, CVC 150 mg daily, read-out: steady-state Cmax,ss
[11] = NASH adults with liver fibrosis, one year

| Compound | adverse effects on long term administration [1] | FGF19, biomarker of FXR target engagement in the enterocyte (FXR) | safety concerns [2] | decrease of AUC0-24 h of TRX on co-administration of CVC ([3]; Day 1, TRX 60 μg + CVC 150 mg) [%] | decrease of Cmax of TRX on co-administration of CVC ([3]; Day 1, TRX 60 μg + CVC 150 mg) [%] | reduction of AUC0-24 h,ss of TRX when co-administered with CVC [3, 6] [%] | reduction of Cmax,ss of TRX when co-administered with CVC [3, 6] [%] | AUC(0-t) [3, 7] [ng·h/mL] | Cmax [3, 8] [ng/mL] | AUC(0-t) [3, 9] [ng·h/mL] | Cmax [3, 10] [ng/mL] | reduction of TRX exposure by co-administration of CVC ([3]; summary statement, TRX 60 μg + CVC 150 mg) | microscopic findings indicative of toxicity [4] | tolerability [5] | accumulation in plasma over the study duration ([3]; 150 mg daily, Day 1 to Day 14) | impact of co-administration with TRX on Cmax and AUC0-24 h of CVC ([3]; CVC 150 mg + TRX 60 μg) | fibrosis (NASH with liver fibrosis; [11]) | improvement of NAS (NASH with liver fibrosis; [11]) | adverse effects (NASH with liver fibrosis; patients) |
| --- | --- | --- | --- | --- | --- | --- | --- | --- | --- | --- | --- | --- | --- | --- | --- | --- | --- | --- | --- |
| CC[C@H]1[C@@H](O)[C@@H]2[C@H](CC[C@]3(C)[C@@H]([C@H](C)CCC(=O)O)CC[C@@H]23)[C@@]2(C)CC[C@@H](O)C[C@@H]12 [OCA, obeticholic acid] | pruritus; also recorded: increased LDL cholesterol |  |  |  |  |  |  |  |  |  |  |  |  |  |  |  |  |  |  |
| O=C(O)c1cc(F)c2nc(N3[C@@H]4CC[C@H]3C[C@@H](OCc3c(-c5ccccc5OC(F)(F)F)noc3C3CC3)C4)sc2c1 [TRX, 2-[(1R,3r,5S)-3-({5-cyclopropyl-3-[2-(trifluoromethoxy)phenyl]-1,2-oxazol-4-yl}methoxy)-8-azabicyclo [3.2.1]octan-8-yl]-4-fluoro-1,3-benzothiazole-6-carboxylic acid] |  | Dose-dependent increases | No safety concerns | 32 | 33 | 35 | 35 | 17.9 | 1.46 | 25.2 | 1.77 | 32-33% |  |  |  |  |  |  |  |
| CCCCOCCOc1ccc(-c2ccc3c(c2)/C=C(/C(=O)Nc2ccc([S@@+]([O-])Cc4cncn4CCC)cc2)CCCN3CC(C)C)cc1 [CVC, (S,E)-8-(4-(2-butoxyethoxy)phenyl)-1-(2-methylpropyl)-N-(4-(((1-propyl-1H-imidazol-5-yl)methyl)sulfinyl)phenyl)-1,2,3,4-tetrahydrobenzo[b]azocine-5-carboxamide] |  |  |  |  |  |  |  | 4640 | 450 | 10800 | 778 |  | no microscopic findings indicative of toxicity | generally well-tolerated | accumulated in plasma | no marked impact | reduction of fibrosis | no significant impact | can induce fatigue or diarrhea in a small part of the patients |

Reference: patent US20210186950A1, “COMBINATIONS COMPRISING TROPIFEXOR AND CENICRIVIROC” (NOVARTIS AG, priority 2018, published 2021)
